# From ChEMBL document CHEMBL1154439, “Activity of a hydroxybibenzyl bryophyte constituent against Leishmania spp. and Trypanosoma cruzi: in silico, in vitro and in vivo activity studies” (Eur J Med Chem, 2008)
# Calls of active or inactive are those of the source. The calls are words filed in the database; no cut-off is given here.
# Tests used:
# Leishmania braziliensis [1] = experiment: Antileishmanial activity against Leishmania braziliensis MHOM/BR/75/M2903 promastigotes assessed as lysis of promastigotes at 100 ug/ml after 72 hrs; format: functional
# Leishmania amazonensis [2] = experiment: Antileishmanial activity against Leishmania amazonensis IFLA/BR/67/PH8 promastigotes assessed as lysis of promastigotes at 100 ug/ml after 72 hrs; format: functional
# Leishmania donovani [3] = experiment: Leishmanicidal activity against Leishmania donovani MHOM/BR/74/PP75 promastigotes after 72 hrs; format: functional, organism-based
# Leishmania amazonensis [4] = experiment: Leishmanicidal activity against Leishmania amazonensis amastigotes infected in BALB/c mouse assessed as suppression of parasite load in lesions at 10 mg/kg/day, sc administered 4 weeks after infection for 15 days measured after 1 week relative to control; format: functional; settings: route subcutaneous
# [5] = Cytotoxicity against mouse NCTC-929 fibroblast at 4.3 uM after 24 hrs by resazurin test; format: cell-based; settings: nctc-929, 24 h
# Trypanosoma cruzi [6] = experiment: Antitrypanosomal activity against Trypanosoma cruzi CL-B5 amastigotes infected in mouse NCTC-929 fibroblast after 7 days by colorimetric method; format: functional, organism-based; settings: NCTC-929, 168 h
# [7] = Cytotoxicity against BALB/c mouse peritoneal macrophages at 4.3 uM after 48 hrs by trypan blue exclusion method; format: cell-based; settings: macrophage
# Leishmania donovani [8] = experiment: Leishmanicidal activity against Leishmania donovani MHOM/BR/74/PP75 promastigotes at >13.03 uM after 72 hrs; format: functional, organism-based
# Leishmania amazonensis [9] = experiment: Leishmanicidal activity against Leishmania amazonensis amastigotes infected in BALB/c mouse assessed as suppression of lesion weight at 25 mg/kg/day, sc administered 4 weeks after infection for 15 days measured after 1 week relative to control; format: functional; settings: route subcutaneous
# [10] = Cytotoxicity against mouse NCTC-929 fibroblast at 21.7 uM after 24 hrs by resazurin test; format: cell-based; settings: nctc-929, 24 h
# J774 [11] = experiment: Cytotoxicity against mouse J774 macrophages at 21.7 uM after 24 hrs by resazurin test; format: cell-based; settings: j774, 24 h
# Leishmania amazonensis [12] = experiment: Antileishmanial activity against Leishmania amazonensis PH8 amastigotes infected in mouse peritoneal macrophages at >4.34 uM; format: functional, organism-based
# Leishmania donovani [13] = experiment: Antileishmanial activity against Leishmania donovani MHOM/BR/74/PP75 promastigotes assessed as lysis of promastigotes at 100 ug/ml after 72 hrs; format: functional
# Leishmania braziliensis [14] = experiment: Leishmanicidal activity against Leishmania braziliensis MHOM/BR/75/M2903 promastigotes after 72 hrs; format: functional, organism-based; settings: MHOM/BR/75/M2903, 72 h
# J774 [15] = experiment: Cytotoxicity against mouse J774 macrophages at 2.1 uM after 24 hrs by resazurin test; format: cell-based; settings: j774, 24 h
# Leishmania braziliensis [16] = experiment: Leishmanicidal activity against Leishmania braziliensis MHOM/BR/75/M2903 promastigotes at >13.03 uM after 72 hrs; format: functional, organism-based
# [17] = Cytotoxicity against mouse NCTC-929 fibroblast at 8.6 uM after 24 hrs by resazurin test; format: cell-based; settings: nctc-929, 24 h
# [18] = Cytotoxicity against BALB/c mouse peritoneal macrophages at 21.7 uM after 48 hrs by trypan blue exclusion method; format: cell-based; settings: macrophage
# Leishmania amazonensis [19] = experiment: Leishmanicidal activity against Leishmania amazonensis amastigotes infected in BALB/c mouse assessed as suppression of lesion weight at 10 mg/kg/day, po administered 4 weeks after infection for 15 days measured after 1 week relative to control; format: functional
# [20] = Cytotoxicity against BALB/c mouse peritoneal macrophages at 8.6 uM after 48 hrs by trypan blue exclusion method; format: cell-based; settings: macrophage
# Leishmania amazonensis [21] = experiment: Leishmanicidal activity against Leishmania amazonensis amastigotes infected in BALB/c mouse assessed as suppression of parasite load in lesions at 10 mg/kg/day, po administered 4 weeks after infection for 15 days measured after 1 week relative to control; format: functional
# Trypanosoma cruzi [22] = experiment: Trypanocidal activity against Trypanosoma cruzi CL-B5 clone epimastigotes expressing lacZ gene after 72 hrs at 28 degC; format: functional, organism-based
# Leishmania amazonensis [23] = experiment: Leishmanicidal activity against Leishmania amazonensis amastigotes infected in BALB/c mouse assessed as suppression of parasite load in lesions at 25 mg/kg/day, po administered 4 weeks after infection for 15 days measured after 1 week relative to control; format: functional
# [24] = Cytotoxicity against BALB/c mouse peritoneal macrophages at 2.1 uM after 48 hrs by trypan blue exclusion method; format: cell-based; settings: macrophage
# Leishmania amazonensis [25] = experiment: Leishmanicidal activity against Leishmania amazonensis IFLA/BR/67/PH8 promastigotes after 72 hrs; format: functional, organism-based; settings: IFLA/BR/67/PH8, 72 h
# J774 [26] = experiment: Cytotoxicity against mouse J774 macrophages at 8.6 uM after 24 hrs by resazurin test; format: cell-based; settings: j774, 24 h
# Leishmania amazonensis [27] = experiment: Leishmanicidal activity against Leishmania amazonensis amastigotes infected in BALB/c mouse assessed as suppression of parasite load in lesions at 25 mg/kg/day, sc administered 4 weeks after infection for 15 days measured after 1 week relative to control; format: functional; settings: route subcutaneous
# Leishmania amazonensis [28] = experiment: Leishmanicidal activity against Leishmania amazonensis amastigotes infected in BALB/c mouse assessed as suppression of lesion weight at 25 mg/kg/day, po administered 4 weeks after infection for 15 days measured after 1 week relative to control; format: functional
# Leishmania amazonensis [29] = experiment: Antileishmanial activity against Leishmania amazonensis PH8 amastigotes infected in mouse peritoneal macrophages after 48 hrs; format: functional, organism-based; settings: PH8, 48 h
# J774 [30] = experiment: Cytotoxicity against mouse J774 macrophages at 4.3 uM after 24 hrs by resazurin test; format: cell-based; settings: j774, 24 h
# Leishmania amazonensis [31] = experiment: Leishmanicidal activity against Leishmania amazonensis IFLA/BR/67/PH8 promastigotes at >13.03 uM after 72 hrs; format: functional, organism-based
# [32] = Cytotoxicity against mouse NCTC-929 fibroblast at 2.1 uM after 24 hrs by resazurin test; settings: nctc-929, 24 h
# Leishmania amazonensis [33] = experiment: Leishmanicidal activity against Leishmania amazonensis amastigotes infected in BALB/c mouse assessed as suppression of lesion weight at 10 mg/kg/day, sc administered 4 weeks after infection for 15 days measured after 1 week relative to control; format: functional; settings: route subcutaneous
# Leishmania amazonensis [34] = experiment: Leishmanicidal activity against Leishmania amazonensis amastigotes infected in BALB/c mouse assessed as suppression of lesion weight at 100 mg/kg/day, sc administered 4 weeks after infection for 15 days measured after 1 week relative to control; format: functional, organism-based
# Leishmania amazonensis [35] = experiment: Leishmanicidal activity against Leishmania amazonensis amastigotes infected in BALB/c mouse assessed as suppression of parasite load in lesions at 100 mg/kg/day, sc administered 4 weeks after infection for 15 days measured after 1 week relative to control; format: functional, organism-based
compound,measurement,setting,value
COc1ccc(CCc2cc(OC)ccc2OC)cc1,Activity,Leishmania braziliensis [1],<70%
same,Activity,Leishmania amazonensis [2],<70%
Oc1ccc(CCc2cccc(O)c2)cc1 [LUNULARIN],Activity,Leishmania braziliensis [1],<70%
same,Activity,Leishmania amazonensis [2],<70%
Oc1ccc(CCc2cc(O)ccc2O)cc1,IC50,Leishmania donovani [3],0.5 µM
same,Activity,Leishmania braziliensis [1],100%
same,Activity,Leishmania amazonensis [4],93%
same,Activity,[5],0.66%
same,IC50,Trypanosoma cruzi [6],17.3 µM
same,Activity,[7],0%
same,Activity,Leishmania donovani [8],Active
same,Activity,Leishmania amazonensis [9],98.3%
same,Activity,[10],7.91%
same,Activity,J774 [11],18.88%
same,Activity,Leishmania amazonensis [12],Active
same,Activity,Leishmania donovani [13],100%
same,IC50,Leishmania braziliensis [14],1.1 µM
same,Activity,J774 [15],0.76%
same,Activity,Leishmania braziliensis [16],Active
same,Activity,[17],2.93%
same,Activity,[18],1.4%
same,Activity,Leishmania amazonensis [19],90%
same,Activity,[20],0%
same,Activity,Leishmania amazonensis [21],68.6%
same,IC50,Trypanosoma cruzi [22],5.8 µM
same,Activity,Leishmania amazonensis [23],93.1%
same,Activity,[24],0%
same,IC50,Leishmania amazonensis [25],1.1 µM
same,Activity,J774 [26],4.89%
same,Activity,Leishmania amazonensis [27],97%
same,Activity,Leishmania amazonensis [28],80.9%
same,IC50,Leishmania amazonensis [29],1.5 µM
same,Activity,J774 [30],2.11%
same,Activity,Leishmania amazonensis [31],Active
same,Activity,[32],0%
same,Activity,Leishmania amazonensis [2],100%
same,Activity,Leishmania amazonensis [33],95.9%
Oc1ccc(/C=C/c2cc(O)cc(O)c2)cc1 [RESVERATROL],Activity,Leishmania braziliensis [1],80%
same,Activity,Leishmania donovani [13],<70%
same,Activity,Leishmania amazonensis [2],<70%
O=C(Cn1ccnc1[N+](=O)[O-])NCc1ccccc1 [BENZNIDAZOLE],IC50,Trypanosoma cruzi [6],192 µM
same,IC50,Trypanosoma cruzi [22],54.7 µM
N=C(N)c1ccc(OCCCCCOc2ccc(C(=N)N)cc2)cc1 [PENTAMIDINE],IC50,Leishmania donovani [3],9.8 µM
same,IC50,Leishmania braziliensis [14],9.8 µM
same,IC50,Leishmania amazonensis [25],9.8 µM
same,IC50,Leishmania amazonensis [29],0.9 µM
MEGLUMINE ANTIMONATE,Activity,Leishmania amazonensis [34],72.1%
same,Activity,Leishmania amazonensis [35],98.2%
